Source: ChEMBL document CHEMBL1124182, “Design, synthesis, and properties of (4S)-7-(4-amino-2-substituted-pyrrolidin-1-yl)quinolone-3-carboxylic acids” (J Med Chem, 1988)
Converted amounts (≈) assume the structure as drawn.

How the values were obtained:
Escherichia coli [1] = experiment: Supercoiling inhibition assay using purified DNA gyrase isolated from Escherichia coli H560; format: functional; settings: read-out: I50
Pseudomonas aeruginosa [2] = experiment: In vitro Minimum inhibitory concentration against Pseudomonas aeruginosa K799/WT; format: functional
Streptococcus equinus = experiment: In vitro Minimum inhibitory concentration against Streptococcus bovis A5169; format: functional
Escherichia coli [3] = experiment: In vitro Minimum inhibitory concentration against Escherichia coli Juhl; format: functional
Klebsiella pneumoniae = experiment: In vitro Minimum inhibitory concentration against Klebsiella pneumoniae 8045; format: functional
Pseudomonas aeruginosa [4] = experiment: In vitro Minimum inhibitory concentration against Pseudomonas aeruginosa 5007; format: functional
Streptococcus pyogenes = experiment: In vitro Minimum inhibitory concentration against Streptococcus pyogenes 930; format: functional
Staphylococcus aureus [5] = experiment: In vitro Minimum inhibitory concentration against Staphylococcus aureus ATCC 6538P; format: functional
Streptococcus agalactiae = experiment: In vitro Minimum inhibitory concentration against Streptococcus agalactiae CMX 508; format: functional
Enterococcus faecium = experiment: In vitro Minimum inhibitory concentration against Streptococcus faecium ATCC 8043; format: functional
Acinetobacter = experiment: In vitro Minimum inhibitory concentration against Acinetobacter CMX 669; format: functional; settings: Acinetobacter; read-out: MIC
Staphylococcus aureus [6] = experiment: In vitro Minimum inhibitory concentration against Staphylococcus aureus A5177; format: functional
Staphylococcus aureus [7] = experiment: In vitro Minimum inhibitory concentration against Staphylococcus aureus CMX 686B; format: functional
Staphylococcus aureus [8] = experiment: In vitro Minimum inhibitory concentration against Staphylococcus aureus 45; format: functional
[9] = Partition coefficient (logP); format: physicochemical; settings: octanol/water
[10] = system: Staphylococcus epidermidis; experiment: In vitro Minimum inhibitory concentration against Staphylococcus epidermidis 3519; format: functional
[11] = Compound was evaluated for the solubility in Ringer's buffer solution; format: ADME
[12] = Blood level was evaluated by a disk agar diffusion assay at 3.0 hh when administered at a peroral dose of 100 mg/kg; format: ADME, organism-based; set-up: dose 100 mg/kg, route oral; settings: mouse, po, read-out: Blood level
Mus musculus [13] = experiment: Blood level was evaluated by a disk agar diffusion assay at 0.5 hr when administered at a peroral dose of 25 mg/kg; format: functional; settings: route oral
Mus musculus [14] = experiment: Blood level was evaluated by a disk agar diffusion assay at 6.0 hr when administered at a peroral dose of 25 mg/kg; format: functional; settings: route oral
Mus musculus [15] = experiment: Blood level was evaluated by a disk agar diffusion assay at 2.0 hr when administered at a peroral dose of 25 mg/kg; format: functional; settings: route oral
Mus musculus [16] = experiment: Blood level was evaluated by a disk agar diffusion assay at 1.0 hr when administered at a peroral dose of 25 mg/kg; format: functional; settings: route oral
Mus musculus [17] = experiment: Blood level was evaluated by a disk agar diffusion assay at 3.0 hh when administered at a peroral dose of 25 mg/kg; format: functional; settings: route oral
Mus musculus [18] = experiment: Blood level was evaluated by a disk agar diffusion assay at 24.0 hr when administered at a peroral dose of 25 mg/kg; format: functional; settings: route oral
Staphylococcus aureus [19] = experiment: In vivo efficacy against Staphylococcus aureus 10649, in mouse protection tests when administered subcutaneously (sc); format: functional
Staphylococcus aureus [20] = experiment: In vivo efficacy against Staphylococcus aureus 10649, in mouse protection tests when administered perorally (po); format: functional
Mus musculus [21] = experiment: In vivo efficacy against Escherichia coli Juhl, in mouse protection tests when administered subcutaneously (sc); format: functional
Mus musculus [22] = experiment: In vivo efficacy against Escherichia coli Juhl, in mouse protection tests when administered perorally (po); format: functional
[23] = Ringer's buffer solution, read-out: Solubility

IC50 (Escherichia coli [1]) [µg/mL] | MIC (Pseudomonas aeruginosa [2]) [µg/mL] | MIC (Streptococcus equinus) [µg/mL] | MIC (Escherichia coli [3]) [µg/mL] | MIC (Klebsiella pneumoniae) [µg/mL] | MIC (Pseudomonas aeruginosa [4]) [µg/mL] | MIC (Streptococcus pyogenes) [µg/mL] | MIC (Staphylococcus aureus [5]) [µg/mL] | MIC (Streptococcus agalactiae) [µg/mL] | MIC (Enterococcus faecium) [µg/mL] | MIC (Acinetobacter) [µg/mL] | MIC (Staphylococcus aureus [6]) [µg/mL] | MIC (Staphylococcus aureus [7]) [µg/mL] | MIC (Staphylococcus aureus [8]) [µg/mL] | MIC [10] [µg/mL] | Structure (SMILES) | also measured
10 (≈ 23.1 µM) | 12.5 (≈ 28.8 µM) | 50 (≈ 115 µM) | 3.1 (≈ 7.15 µM) | 3.1 (≈ 7.15 µM) | 12.5 (≈ 28.8 µM) | 25 (≈ 57.7 µM) | 1.56 (≈ 3.6 µM) | 12.5 (≈ 28.8 µM) | 25 (≈ 57.7 µM) | 25 (≈ 57.7 µM) | 6.2 (≈ 14.3 µM) | 6.2 (≈ 14.3 µM) | 12.5 (≈ 28.8 µM) | 12.5 (≈ 28.8 µM) | N[C@H]1C[C@@H](CO)N(c2cc3c(cc2F)c(=O)c(C(=O)O)cn3-c2ccc(F)cc2F)C1 | solubility [11, 23]: 60 µg/mL (≈ 138 µM)
– | 1.56 (≈ 3.48 µM) | 1.56 (≈ 3.48 µM) | 0.2 (≈ 0.446 µM) | 0.1 (≈ 0.223 µM) | 1.56 (≈ 3.48 µM) | 0.78 (≈ 1.74 µM) | 0.1 (≈ 0.223 µM) | 0.78 (≈ 1.74 µM) | 0.78 (≈ 1.74 µM) | 0.78 (≈ 1.74 µM) | 0.2 (≈ 0.446 µM) | 0.1 (≈ 0.223 µM) | 0.39 (≈ 0.87 µM) | 0.39 (≈ 0.87 µM) | COCC1C[C@H](N)CN1c1nc2c(cc1F)c(=O)c(C(=O)O)cn2-c1ccc(F)cc1F (some centres not stated) | –
0.75 (≈ 1.72 µM) | 0.78 (≈ 1.79 µM) | 0.78 (≈ 1.79 µM) | 0.1 (≈ 0.229 µM) | 0.1 (≈ 0.229 µM) | 0.78 (≈ 1.79 µM) | 0.2 (≈ 0.458 µM) | 0.05 (≈ 0.115 µM) | 0.39 (≈ 0.894 µM) | 0.2 (≈ 0.458 µM) | 0.39 (≈ 0.894 µM) | 0.1 (≈ 0.229 µM) | 0.05 (≈ 0.115 µM) | 0.1 (≈ 0.229 µM) | 0.2 (≈ 0.458 µM) | N[C@H]1CC(CF)N(c2nc3c(cc2F)c(=O)c(C(=O)O)cn3-c2ccc(F)cc2F)C1 (some centres not stated) | –
7.5 (≈ 17.9 µM) | 3.1 (≈ 7.41 µM) | 6.2 (≈ 14.8 µM) | 0.39 (≈ 0.932 µM) | 0.39 (≈ 0.932 µM) | 12.5 (≈ 29.9 µM) | 1.56 (≈ 3.73 µM) | 0.2 (≈ 0.478 µM) | 6.2 (≈ 14.8 µM) | 3.1 (≈ 7.41 µM) | 0.78 (≈ 1.86 µM) | 0.39 (≈ 0.932 µM) | 0.2 (≈ 0.478 µM) | 0.39 (≈ 0.932 µM) | 0.39 (≈ 0.932 µM) | C[C@@H]1C[C@H](N)CN1c1nc2c(cc1F)c(=O)c(C(=O)O)cn2-c1ccc(F)cc1F | Blood level (Mus musculus [13]): 5.3 µg/mL; Blood level (Mus musculus [14]): 1.1 µg/mL; Blood level (Mus musculus [15]): 3.7 µg/mL; Blood level (Mus musculus [16]): 12.4 µg/mL; Blood level (Mus musculus [17]): 2.2 µg/mL; logP [9]: -0.11; solubility [11, 23]: 340 µg/mL (≈ 813 µM); Blood level (Mus musculus [18]): 0 µg/mL
– | 0.39 (≈ 0.939 µM) | 1.56 (≈ 3.76 µM) | 0.05 (≈ 0.12 µM) | 0.05 (≈ 0.12 µM) | 1.56 (≈ 3.76 µM) | 0.78 (≈ 1.88 µM) | 0.1 (≈ 0.241 µM) | 0.78 (≈ 1.88 µM) | 0.39 (≈ 0.939 µM) | 0.39 (≈ 0.939 µM) | 0.39 (≈ 0.939 µM) | 0.2 (≈ 0.481 µM) | 0.78 (≈ 1.88 µM) | 0.39 (≈ 0.939 µM) | O=C(O)c1cn(-c2ccc(F)cc2F)c2cc(N3C[C@@H]4C[C@H]3CN4)c(F)cc2c1=O | –
– | 3.1 (≈ 7.74 µM) | 25 (≈ 62.4 µM) | 0.78 (≈ 1.95 µM) | 0.78 (≈ 1.95 µM) | 3.1 (≈ 7.74 µM) | 3.1 (≈ 7.74 µM) | 0.1 (≈ 0.25 µM) | 3.1 (≈ 7.74 µM) | 3.1 (≈ 7.74 µM) | 0.78 (≈ 1.95 µM) | 0.39 (≈ 0.974 µM) | 0.1 (≈ 0.25 µM) | 0.39 (≈ 0.974 µM) | 0.39 (≈ 0.974 µM) | O=C(O)c1cn(-c2ccc(F)cc2)c2cc(N3CCC[C@@H]3CO)c(F)cc2c1=O | –

Structure (SMILES) | IC50 (Escherichia coli [1]) [µg/mL] | MIC (Pseudomonas aeruginosa [2]) [µg/mL] | MIC (Streptococcus equinus) [µg/mL] | MIC (Escherichia coli [3]) [µg/mL] | MIC (Klebsiella pneumoniae) [µg/mL] | MIC (Pseudomonas aeruginosa [4]) [µg/mL] | MIC (Streptococcus pyogenes) [µg/mL] | MIC (Staphylococcus aureus [5]) [µg/mL] | MIC (Streptococcus agalactiae) [µg/mL] | MIC (Enterococcus faecium) [µg/mL] | MIC (Acinetobacter) [µg/mL] | MIC (Staphylococcus aureus [6]) [µg/mL] | MIC (Staphylococcus aureus [7]) [µg/mL] | MIC (Staphylococcus aureus [8]) [µg/mL] | MIC [10] [µg/mL] | also measured
NC1CCN(c2nc3c(cc2F)c(=O)c(C(=O)O)cn3-c2ccc(F)cc2F)C1 (configuration not stated) [TOSUFLOXACIN] | 0.4 (≈ 0.989 µM) | 0.39 (≈ 0.965 µM) | 0.78 (≈ 1.93 µM) | 0.02 (≈ 0.0495 µM) | 0.01 (≈ 0.0247 µM) | 0.78 (≈ 1.93 µM) | 0.1 (≈ 0.247 µM) | 0.02 (≈ 0.0495 µM) | 0.2 (≈ 0.495 µM) | 0.2 (≈ 0.495 µM) | 0.05 (≈ 0.124 µM) | 0.05 (≈ 0.124 µM) | 0.05 (≈ 0.124 µM) | 0.05 (≈ 0.124 µM) | 0.1 (≈ 0.247 µM) | logP [9]: -0.46; solubility ([11]; buffer): 8 µg/mL (≈ 19.8 µM); concentration at 3 h [12]: 1700 ng/mL
O=C(O)c1cn(C2CC2)c2cc(N3CCNCC3)c(F)cc2c1=O [CIPROFLOXACIN] | 0.9 (≈ 2.72 µM) | 0.2 (≈ 0.604 µM) | 1.56 (≈ 4.71 µM) | – | 0.02 (≈ 0.0604 µM) | 0.39 (≈ 1.18 µM) | – | 0.2 (≈ 0.604 µM) | 0.78 (≈ 2.35 µM) | 0.39 (≈ 1.18 µM) | 0.39 (≈ 1.18 µM) | 0.39 (≈ 1.18 µM) | 0.39 (≈ 1.18 µM) | 0.78 (≈ 2.35 µM) | 0.78 (≈ 2.35 µM) | Blood level (Mus musculus [13]): 1.3 µg/mL; ED50 (Staphylococcus aureus [19]): 1.6 mg/kg; Blood level (Mus musculus [14]): 0 µg/mL; Blood level (Mus musculus [15]): 0.3 µg/mL; Blood level (Mus musculus [16]): 0.8 µg/mL; ED50 (Staphylococcus aureus [20]): 15.5 mg/kg; Blood level (Mus musculus [17]): 0.1 µg/mL; Blood level (Mus musculus [18]): 0 µg/mL; ED50 (Mus musculus [21]): 0.2 mg/kg; ED50 (Mus musculus [22]): 1.9 mg/kg
